In paper PMC4268243 (Nuclear medicine and biology, 2014):
Entries after “also recorded” stand apart in the source; their conditions may differ.

Tests used:
[1] = test system: rat orthotopic brain tumor model; conditions: rat model; cited from earlier work
[2] = test system: A549 lung adenocarcinoma cells; assay: Amino acid uptake and inhibition in A549 cells; format: cell-based, human; conditions: A549, 30 minutes incubation
[3] = test system: DU145 androgen-independent prostate carcinoma cells; assay: Amino acid uptake and inhibition in DU145 cells; format: cell-based, human; conditions: DU145, 30 minutes incubation
U87 glioblastoma cells = assay: Amino acid uptake and inhibition in U87 cells; format: cell-based, human; conditions: U87, 30 minutes incubation
[4] = test system: MDA MB468 estrogen-independent breast carcinoma cells; assay: Amino acid uptake and inhibition in MDA MB468 cells; format: cell-based, human; conditions: MDA MB468, 30 minutes incubation
[5] = test system: SKOV3 estrogen-positive ovarian adenocarcinoma cells; assay: Amino acid uptake and inhibition in SKOV3 cells; format: cell-based, human; conditions: SKOV3, 30 minutes incubation
A549 tumor xenograft = assay: Biodistribution in A549 tumor-bearing SCID mice; format: in vivo; conditions: listed as (R)-[^18F]MeFAMP 2
DU145 tumor xenograft = assay: Biodistribution in DU145 tumor-bearing SCID mice; format: in vivo; conditions: listed as (R)-[^18F]MeFAMP 2
U87 tumor xenograft = assay: Biodistribution in U87 tumor-bearing SCID mice; format: in vivo; conditions: listed as (R)-[^18F]MeFAMP 2
[6] = test system: MDA MB468 tumor xenograft; assay: Biodistribution in MDA MB468 tumor-bearing SCID mice; format: in vivo; conditions: listed as (R)-[^18F]MeFAMP 2
SKOV3 tumor xenograft = assay: Biodistribution in SKOV3 tumor-bearing SCID mice; format: in vivo; conditions: listed as (R)-[^18F]MeFAMP 2
[7] = test system: human A549, DU145, U87, MDA MB468 and SKOV3 tumor cells; assay: Amino acid uptake and inhibition, summary over the five tumor cell lines; format: cell-based
[8] = test system: SCID mice xenograft tumor models; format: in vivo; conditions: in most cases, over tumors and time points
[9] = Brain uptake of [18F]FET in nude mice; format: in vivo

Which brain uptake [1] does the source give for `NC1(C(=O)O)CC([18F])C1` (stereo not shown) [[^18F]FACBC, [18F]1-amino-3-fluorocyclobutane-1-carboxylic acid, reference compound] here?
The brain uptake was 0.26±0.03 %ID/g.

Which Cell uptake ([2]; 10 mM BCH) does the source give for `CN[C@@](C)(C[18F])C(=O)O` [(R)-[^18F]2] [3-[^18F]fluoro-2-methyl-2-N-(methylamino)propanoic acid] here?
The Cell uptake was 3.1±0.1 % ID/5×10^5 cells.

And the Cell uptake ([2]; 10 mM MeAIB)?
The Cell uptake was 0.4±0.04 % ID/5×10^5 cells.

What about the Cell uptake ([2]; Control (no inhibitor)) of the same compound?
Its Cell uptake is 2.4±0.2 % ID/5×10^5 cells.

And the Cell uptake ([3]; 10 mM BCH)?
The Cell uptake was 1.9±0.1 % ID/5×10^5 cells.

What about the Cell uptake ([3]; 10 mM MeAIB) of the same compound?
The Cell uptake was 0.4±0.1 % ID/5×10^5 cells.

And the Cell uptake ([3]; Control (no inhibitor))?
Its Cell uptake is 1.5±0.2 % ID/5×10^5 cells.

What about the Cell uptake (U87 glioblastoma cells; 10 mM BCH) of the same compound?
Its Cell uptake is 3.5±0.2 % ID/5×10^5 cells.

What about the Cell uptake (U87 glioblastoma cells; 10 mM MeAIB) of the same compound?
The Cell uptake was 0.6±0.1 % ID/5×10^5 cells.

What about the Cell uptake (U87 glioblastoma cells; Control (no inhibitor)) of the same compound?
The Cell uptake was 2.7±0.3 % ID/5×10^5 cells.

What about the Cell uptake ([4]; 10 mM BCH) of the same compound?
Its Cell uptake is 1.5±0.2 % ID/5×10^5 cells.

What about the Cell uptake ([4]; 10 mM MeAIB) of the same compound?
The Cell uptake was 0.5±0.2 % ID/5×10^5 cells.

And the Cell uptake ([4]; Control (no inhibitor))?
The Cell uptake was 1.4±0.1 % ID/5×10^5 cells.

And the Cell uptake ([5]; 10 mM BCH)?
The Cell uptake was 4.5±0.7 % ID/5×10^5 cells.

And the Cell uptake ([5]; 10 mM MeAIB)?
Its Cell uptake is 0.5±0.2 % ID/5×10^5 cells.

And the Cell uptake ([5]; Control (no inhibitor))?
The Cell uptake was 3.9±0.6 % ID/5×10^5 cells.

And the uptake in tumor (A549 tumor xenograft; 15 min post injection)?
Its uptake in tumor is 5.3±1.9 %ID/g.

And the uptake in liver (A549 tumor xenograft; 30 min post injection)?
Its uptake in liver is 7.5±1.5 %ID/g.

And the uptake in spleen (A549 tumor xenograft; 30 min post injection)?
The uptake in spleen was 9.8±1.3 %ID/g.

And the uptake in tumor (A549 tumor xenograft; 30 min post injection)?
The uptake in tumor was 6.3±1.3 %ID/g.

What about the uptake in liver (A549 tumor xenograft; 60 min post injection) of the same compound?
The uptake in liver was 5.2±0.3 %ID/g.

And the uptake in liver (DU145 tumor xenograft; 15 min post injection)?
Its uptake in liver is 7.8±1.2 %ID/g.

And the uptake in tumor (DU145 tumor xenograft; 15 min post injection)?
Its uptake in tumor is 5.2±1.2 %ID/g.

What about the uptake in pancreas (DU145 tumor xenograft; 30 min post injection) of the same compound?
The uptake in pancreas was 53±17 %ID/g.

What about the uptake in spleen (DU145 tumor xenograft; 120 min post injection) of the same compound?
The uptake in spleen was 7.4±1.6 %ID/g.

What about the uptake in pancreas (U87 tumor xenograft; 15 min post injection) of the same compound?
The uptake in pancreas was 74±11 %ID/g.

What about the uptake in tumor (U87 tumor xenograft; 30 min post injection) of the same compound?
Its uptake in tumor is 5.9±1.1 %ID/g.

What about the uptake in kidney (U87 tumor xenograft; 60 min post injection) of the same compound?
Its uptake in kidney is 6.8±1.3 %ID/g.

What about the uptake in liver (U87 tumor xenograft; 60 min post injection) of the same compound?
Its uptake in liver is 6.8±1.3 %ID/g.

And the uptake in tumor (U87 tumor xenograft; 60 min post injection)?
The uptake in tumor was 5.8±0.8 %ID/g.

What about the uptake in spleen (U87 tumor xenograft; 120 min post injection) of the same compound?
The uptake in spleen was 6.1±0.5 %ID/g.

And the uptake in pancreas ([6]; 15 min post injection)?
Its uptake in pancreas is 59±3.3 %ID/g.

What about the uptake in kidney ([6]; 60 min post injection) of the same compound?
The uptake in kidney was 5.9±0.8 %ID/g.

What about the uptake in spleen ([6]; 120 min post injection) of the same compound?
The uptake in spleen was 6.6±0.8 %ID/g.

And the uptake in tumor (SKOV3 tumor xenograft; 60 min post injection)?
The uptake in tumor was 7.5±1.8 %ID/g.

And the uptake in spleen (SKOV3 tumor xenograft; 120 min post injection)?
Its uptake in spleen is 6.8±0.6 %ID/g.

And the “inhibition of uptake by BCH” value ([7]; 10 mM BCH, relative to control, most cell lines)?
Its value is “no BCH inhibition was observed in most cases”.

And the “inhibition of uptake by MeAIB” value ([7]; 10 mM MeAIB, relative to control, most cell lines)?
Its value is 50-91%.

What about the “uptake in tumor cells” value ([7]; 30 minutes incubation, without inhibitors, range over the cell lines) of the same compound?
Its value is 1-7 %ID/5×10^5 cells.

And the “amino acid transport system mediating uptake / selectivity” value ([7]; AAT cell inhibition assays with MeAIB and BCH)?
The value was “high selectivity for system A AAT; also recorded: the most selective for system A transport”.

What about the “ratio of tumor to muscle” value [8] of the same compound?
The value was greater than 4.

For `N[C@@H](Cc1ccc(OCC[18F])cc1)C(=O)O` [[^18F]FET, O-(2-[^18F]fluoroethyl)-L-tyrosine], which “fold higher brain uptake than [18F]1” value ([9]; [18F]FET in nude mice vs [18F]1 in SCID mice) is on record?
The value was 2.5-3.5 fold.

What about the “fold higher brain uptake than [18F]2” value ([9]; [18F]FET in nude mice vs [18F]2 in SCID mice) of the same compound?
Its value is 7-14 fold.
